Results as given in US8633308B2, “Compounds for preventing or treating viral infections and methods of use thereof” (The Governors of The University of Alberta, priority 2007, dated 2014).
pIC50: −log10 of the molar value. Where “and” joins values, the source holds several entries; their conditions need not be identical. Equal entries are not always repeated. Entries after “also recorded” stand apart in the source; their conditions may differ. Where two headings read alike, the source gives them in different places.

Legend:
HSV-1 KOS [1] = experiment: HSV-1 infectivity plaque assay, virions pretreated with compound, Vero cells; type: cell-based, herpes simplex virus type 1; conditions: for IC50: Table 1, read-out: IC50 (μM) on infectivity of HSV-1 on Vero cells; for potency compared with dUY11: infections of cultured cells
Vero cells [2] = experiment: Cytotoxic/cytostatic effects, trypan blue exclusion cell counts; conditions: for cytotoxicity (in words): cultured cells
HSV-1 [3] = experiment: HSV-1 DNA replication, Southern blot of intracellular viral DNA in infected Vero cells; type: cell-based, herpes simplex virus type 1; conditions: 2 μM, 5 PFU/cell, 1, 5, 18, 24 hpi
Description: To identify whether the amphipathic nucleoside derivatives inhibited either viral DNA replication or viral gene expression, the ability of the amphipathic nucleoside derivatives to inhibit the accumulation of HSV-1 DNA was tested.

HSV-1 [4] = experiment: Release of HSV-1 DNA/virions by infected Vero cells, Southern blot of extracellular viral DNA; type: cell-based, herpes simplex virus type 1; conditions: 2 μM, 1, 5, 18, 24 hpi
HSV-1 KOS [5] = experiment: HSV-1 infectivity plaque assay, pretreated virions, Human Foreskin Fibroblasts; type: cell-based, herpes simplex virus type 1; conditions: HFF
Text: FIG. 8 is a line graph showing HSV-1 infectivity plotted against concentration of dUY11. […] As expected, dUY11 treated virions were equally non-infectious for Vero cells or Human Foreskin Fibroblasts.

HSV-1 KOS [6] = experiment: Binding of radiolabeled HSV-1 virions to Vero cells; type: cell-based, herpes simplex virus type 1; conditions: 7 μM; adsorption at 4° C. for 1 hour
Description: Infectivity was inhibited by pre-treating HSV-1 virions with the amphipathic nucleoside derivatives before infection. These nucleosides may thus inhibit HSV-1 infectivity by, for example, preventing virion binding to cells. Alternatively, they may disrupt extracellular virions (i.e. have virucidal activities). […] The binding of HSV-1 virions pre-treated with dUY11 was assessed. FIG. 11 is a bar graph and photographic images showing HSV-1 binding (A) and infectivity (B). In parallel studies, [35]S-Methionine radiolabeled (approximately 4×10^5 cpm in 2.5×10^5 PFU) (A) or non-radiolabeled HSV-1 KOS (B) were pretreated with no drug (white bar), 7 μM dUY11 (striped bar), or 100 μg/ml heparin (black bar) for 5 minutes at 37° C. The samples were then cooled on ice. Inocula were diluted (1:20, 1:100) in ice-cold serum-free media supplemented with no drug, 7 μM dUY11, or 100 μg/ml heparin. Vero cells were infected with the so-pretreated virions at 4° C. for 1 hour, washed three times with ice-cold serum-free medium and lysed. Bound virions were quantified by liquid scintillation. Error bars represent ranges of three experiments (A).

HSV-1 [7] = experiment: High-affinity binding of HSV-1 virions, heparin competition; type: cell-based, herpes simplex virus type 1; conditions: 7 μM
Description: dUY11 was next evaluated for its ability to affect high-affinity binding. FIG. 12 is a line graph showing competition of HSV-1 binding to cells by increasing concentration of heparin. […] Inocula were cooled on ice, and then diluted (1:10) in ice-cold serum-free media with or without 7 μM dUY11. Following 15 minute adsorption onto Vero cells, unbound virions were washed away. […] Virions stripped away by these washes were then quantified by liquid scintillation. Error bars represent ranges of two experiments. […] Therefore, the amphipathic nucleoside derivatives inhibit a step between high-affinity binding and viral DNA replication.

HSV-1 KOS [8] = experiment: HSV-1 entry, RFP reporter under HSV-1 ICP0 IE promoter in Vero cells; type: cell-based, herpes simplex virus type 1; conditions: virions pretreated with 2 μM; 24 hpi
HSV-2 strain 186 = type: cell-based, HSV type 2; conditions: virions pretreated 5 minutes at 37° C.; Vero cells; read-out: IC50, infectivity of HSV-2 strain 186
HSV-2 strain 333 = type: cell-based, HSV type 2; conditions: virions pretreated 5 minutes at 37° C.; Vero cells; read-out: IC50, infectivity of HSV-2 strain 333
VSV = type: cell-based, vesicular stomatitis virus; conditions: virions pretreated 5 minutes at 37° C.; Vero cells; read-out: IC50, infectivity of VSV
SIN virus = type: cell-based, Sindbis virus; conditions: virions pretreated 5 minutes at 37° C.; Vero cells; read-out: IC50, infectivity of SIN
HSV-1 KOS [9] = experiment: HSV-1 infectivity, Vero cells pretreated with compound, untreated virions; type: cell-based, herpes simplex virus type 1; conditions: IC50 5.4 μM versus 20 nM
HSV-1 KOS [10] = experiment: Infectivity of progeny virions produced by treated infected Vero cells, plaque assay; type: cell-based, herpes simplex virus type 1
Description: Virions produced by cells infected and treated with said compounds after infection should therefore not be as infectious as virions produced by untreated cells. FIG. 16A is a line graph showing the reduction in infectivity of virions produced by cells treated with amphipathic nucleoside derivatives for 24 hours and plotted against drug concentration. Vero cells were infected with HSV-1 KOS at a multiplicity of infection (MOI) of 3 PFU/cell. […] Cells were harvested at 24 hpi and viral infectivity was evaluated by standard plaque assays. Error bars represent ranges of 3 or more experiments. The virions produced in the presence of dUY11 were 8 orders of magnitude less infectious than those produced by untreated cells (FIG. 16A). The experiments were then repeated, but limiting the exposure of the infected cells to dUY11 to only 1 hour, immediately after removing the viral inoculum (FIG. 16B). […] Infected cells were then incubated without drug for 22 h, then the infectivity of the progeny virions was assessed. […] Therefore, dUY11 interacts with pre-existing cellular factors that are incorporated into virions, such as membrane lipids.

HSV-2 = experiment: Mouse vaginal infection with HSV-2 virions exposed to compound; type: in vivo, mice
Text: In order to determine whether an amphipathic nucleoside derivative described herein inhibited viral transmission, a model vaginal infection with a sexually transmitted virus, HSV-2, was used. […] All five mice infected with 3×10^3 infectious virions, and three of the mice infected with 10^3, had to be euthanized between days 7 and 9 due to advanced illness (FIGS. 18E and 19A-B).

[11] = Dispersion and stability in culture medium; type: physicochemical
Vero cells [12] = system: Vero cells
HSV-1 [13] = experiment: HSV-1 replication, cells treated only after infection with untreated virions; conditions: post-adsorption treatment of cells
Description: HSV-1 inocula were incubated at 37° C. for 0 or 5 minutes with 2 μM of dUY11 (left half of each panel) or with DMSO vehicle (right half of each panel). Vero cells were infected with 0.5; 5; 50; 500; 5,000; or 50,000 PFU of treated HSV-1, as indicated in the cartoon (top panel), washed and overlaid with Dulbecco's Modified Eagle Media (DMEM) supplemented with 5% fetal bovine serum (FBS) and 2% methylcellulose (MC).
Tests were performed to determine whether dUY11 preferentially targets the viral envelope or the cell membrane. […] HSV-1 KOS (200 PFU) were incubated with 0, 0.002, 0.007, 0.02, 0.07, 0.2, 0.7, 2, 7, 20 or 70 μM dUY11 for 5 minutes at 37° C. Vero cells were then infected with so-pretreated virions for 1 hour, washed and overlaid with medium supplemented with 5% FBS and 2% MC (▪). Alternatively, untreated inocula were used to infect untreated Vero cells (▴) or Vero cells pretreated at 37° C. for up to 60 minutes with 0, 2, 7, 20 or 70 μM dUY11 (●). Non-pretreated infected cells were then overlayed with medium supplemented with 5% FBS and 2% MC supplemented with 0, 2, 7, 20 or 70 μM dUY11. […] Error bars represent ranges of three or more experiments.

[14] = 10^3 or 3×10^3 HSV-2 virions exposed to 70 μM, vaginal infection

## O=c1[nH]c(=O)n([C@@H]2O[C@H](CO)C(O)C2O)cc1C#Cc1ccc2c3cccc4cccc(c5cccc1c52)c43 (some centres unmarked) [aUY11, 5-(Perylen-3-ylethynyl)-arabino-uridine]
HSV-1 KOS [1]; Human alphaherpesvirus 1, Vero
  IC50: 0.075 µM
HSV-1 KOS [1]
  potency compared with dUY11: approximately as potent as dUY11
Vero cells [2]
  cytotoxicity (in words): neither were cytotoxic

## O=c1[nH]c(=O)n([C@H]2C[C@H](O)[C@@H](CO)O2)cc1C#Cc1ccc2c3cccc4cccc(c5cccc1c52)c43 [dUY11]
HSV-1 [3]
  inhibition of HSV-1 DNA replication (intracellular viral DNA): does not inhibit HSV-1 DNA replication; also recorded: does not inhibit viral DNA replication at any time tested
HSV-1 [4]
  inhibition of release of HSV-1 DNA (extracellular viral DNA): does not inhibit the release of progeny HSV-1 DNA
HSV-1 KOS [1]; 20 nM (IC50) at 37° C., Vero cells
  time to inhibit HSV-1 infectivity by 50%: 220 s
HSV-1 KOS [1]; 700 nM, Vero cells
  infectivity with virions pretreated with 700 nM: fully inhibited
HSV-1 KOS [1]; 2 μM, inocula incubated 0 or 5 min at 37° C.
  effect on viral infectivity, plaque assay: inhibits viral infectivity
HSV-1 KOS [1]; 7 μM
  infectivity in parallel to binding study: did abrogate infectivity
HSV-1 KOS [1]
  IC50: 0.05 µM
HSV-1 KOS [1]; up to 70 μM
  maximum inhibition, virion pretreatment: 100%
HSV-1 KOS [1]; virions pretreated 5 minutes at 37° C., Vero cells, calculated graphically, read-out: IC50, HSV-1 infectivity
  pIC50: 7.70 and 7.60 and 7.62
HSV-1 KOS [5]; 700 nM
  infectivity with virions pretreated with 700 nM: fully inhibited
HSV-1 KOS [5]; virions pretreated 5 minutes at 37° C.
  pIC50: 7.70
HSV-1 KOS [6]
  inhibition of HSV-1 virion binding to cells: did not inhibit virion binding; also recorded: does not inhibit HSV-1 binding
HSV-1 [7]
  virucidal activity: not virucidal
HSV-1 [7]; heparin washes 0 to 1,000 μg/ml
  block of low- or high-affinity binding: does not block either low- or high-affinity binding; also recorded: does not block high-affinity binding
HSV-1 KOS [8]
  HSV-1 entry (RFP expression in reporter cells): no detectable fluorescence; also recorded: inhibits HSV-1 entry
HSV-2 strain 186
  pIC50: 7.31
HSV-2 strain 333
  pIC50: 7.19
VSV
  pIC50: 8.22
SIN virus
  pIC50: 7.24
HSV-1 KOS [9]
  fold higher concentration for cell pretreatment versus virion pretreatment: 270 fold
HSV-1 KOS [10]; cells exposed for only 1 hour
  pIC50: 5.41
HSV-1 KOS [10]; cells exposed for only 1 hour after removing inoculum
  reduction in infectivity of virions budded from treated cells: 6 orders of magnitude
HSV-1 KOS [10]; cells treated for 24 or only 1 hours
  effect on infectivity of progeny virions (in words): inhibits the infectivity of progeny virions
HSV-1 KOS [10]; cells treated for 24 hours after infection, up to 2 μM
  reduction in infectivity of virions produced by treated cells: 8 orders of magnitude
HSV-2; [14]
  mice shedding detectable infectious virus: None of the ten mice
  mice showing clinical signs of infection: None of the ten mice
HSV-2; virions exposed to 70 μM
  protection of mice from vaginal (genital) infection: protects mice from genital infection; also recorded: protects from vaginal infection with HSV-2; also recorded: non-infectious to mice
[11]; 150 μM
  stability in medium: not stable in medium for long periods
[11]; culture media
  concentration at which homogeneously dispersed in media: up to 70,000 nM
Vero cells [12]
  cytotoxicity (in words): non-cytotoxic
Vero cells [2]; 50% cytotoxicity not reached
  safety index (SI): > 7,500
HSV-1 [13]
  effect on viral replication when added after infection: no effect on viral replication; also recorded: no effect on HSV-1 replication

## O=c1[nH]c(=O)n([C@H]2CC[C@@H](CO)O2)cc1C#Cc1ccc2c3cccc4cccc(c5cccc1c52)c43 [ddUY11, 5-(Perylen-3-ylethynyl)-2′,3′-dideoxyuridine]
HSV-1 KOS [1]; Human alphaherpesvirus 1, Vero
  IC50: 0.045 µM
HSV-1 KOS [1]
  potency compared with dUY11: approximately as potent as dUY11
Vero cells [2]
  cytotoxicity (in words): neither were cytotoxic
